# Experimental data from US20090215849A1, “High stability aqueous gels comprising metronidazole and methods for the preparation thereof” (GALDERMA S.A., priority 2005, published 2009).
# Assay: Solubility of metronidazole in water
# Format: physicochemical
# Conditions: water/propylene glycol mixtures said to give higher solubilities (values not given)
# Text: Without wishing to be bound by any particular theory, it is possible that the stabilizing effect according to the invention is at least partly due to the fact that a mixture of water and propylene glycol allows a very good solubilization of metronidazole, in particular when the water and the propylene glycol are present in the abovementioned advantageous ranges, whereas a lower solubilization is obtained when the propylene glycol is introduced after the dissolution of the metronidazole in water, even when the propylene glycol is post-introduced in large quantities as in the method of U.S. Pat. No. 4,837,378.
compound,measurement,value
"Cc1ncc([N+](=O)[O-])n1CCO [Metronidazole, 1-(2-hydroxyethyl)-2-methyl-5-nitroimidazole]",solubility in water,~0.78%
